Assay results taken from PubChem BioAssay (NCI).
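Compound exposure: 48 hours, 5 concentrations, 96-well plates. TGI denotes the concentration required for complete inhibition of growth.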

System: MOLT-4 leukemia
Assay: DTP human tumour cell line panel, 48 h

| SMILES | TGI [µM] |
| --- | --- |
| COC(=O)CCCC(=O)C(=Nc1c(Cl)cccc1Cl)NNc1ccc(Cl)cc1 | 76.6 |
| O=[N+]([O-])C(=C(Sc1ccccc1)Sc1ccccc1)C(Cl)=C(Cl)Cl | 0.216 |

System: MALME-3M melanoma
Assay: DTP human tumour cell line panel, 48 h

| SMILES | TGI [µM] |
| --- | --- |
| O=C1C(Cl)N(c2ccccc2)C1c1c[nH]c2ccccc12 (centres undefined) | > 100 |
| COc1cc2c(NCCCCCCO[N+](=O)[O-])ncnc2c(OC)c1OC | 31.9 |
| O=C(O)c1cc(S(=O)(=O)N=NC=C2c3ccccc3N(O)c3ccccc32)ccc1O | 50.3 |
| CC(=O)OCC1OC(n2c(=S)[nH]c(-c3ccccc3)c(C#N)c2=O)C(OC(C)=O)C(OC(C)=O)C1OC(C)=O (centres undefined) | > 100 |
| CCOC(=O)c1c(SCCN2CCCC2)n(-c2ccccc2)c(=S)n(-c2ccccc2)c1=O | 3.36 |
| COC(=O)CCCC(=O)C(=Nc1c(Cl)cccc1Cl)NNc1ccc(Cl)cc1 | > 100 |
| O=[N+]([O-])C(=C(Sc1ccccc1)Sc1ccccc1)C(Cl)=C(Cl)Cl | 1.37 |

System: SK-MEL-28 melanoma
Assay: DTP human tumour cell line panel, 48 h

| SMILES | TGI [µM] |
| --- | --- |
| O=C1C(Cl)N(c2ccccc2)C1c1c[nH]c2ccccc12 (centres undefined) | > 100 |
| COc1cc2c(NCCCCCCO[N+](=O)[O-])ncnc2c(OC)c1OC | > 83 |
| O=C(O)c1cc(S(=O)(=O)N=NC=C2c3ccccc3N(O)c3ccccc32)ccc1O | 30.9 |
| CC(=O)OCC1OC(n2c(=S)[nH]c(-c3ccccc3)c(C#N)c2=O)C(OC(C)=O)C(OC(C)=O)C1OC(C)=O (centres undefined) | > 100 |
| CCOC(=O)c1c(SCCN2CCCC2)n(-c2ccccc2)c(=S)n(-c2ccccc2)c1=O | 7.48 |
| COC(=O)CCCC(=O)C(=Nc1c(Cl)cccc1Cl)NNc1ccc(Cl)cc1 | > 100 |
| O=[N+]([O-])C(=C(Sc1ccccc1)Sc1ccccc1)C(Cl)=C(Cl)Cl | 1.09 |

System: HOP-62 NSCLC
Assay: DTP human tumour cell line panel, 48 h

| SMILES | TGI [µM] |
| --- | --- |
| O=C1C(Cl)N(c2ccccc2)C1c1c[nH]c2ccccc12 (centres undefined) | > 100 |
| COc1cc2c(NCCCCCCO[N+](=O)[O-])ncnc2c(OC)c1OC | 66.7 |
| O=C(O)c1cc(S(=O)(=O)N=NC=C2c3ccccc3N(O)c3ccccc32)ccc1O | 37.5 |
| CC(=O)OCC1OC(n2c(=S)[nH]c(-c3ccccc3)c(C#N)c2=O)C(OC(C)=O)C(OC(C)=O)C1OC(C)=O (centres undefined) | > 100 |
| CCOC(=O)c1c(SCCN2CCCC2)n(-c2ccccc2)c(=S)n(-c2ccccc2)c1=O | 36.6 |
| COC(=O)CCCC(=O)C(=Nc1c(Cl)cccc1Cl)NNc1ccc(Cl)cc1 | > 100 |
| O=[N+]([O-])C(=C(Sc1ccccc1)Sc1ccccc1)C(Cl)=C(Cl)Cl | 4.09 |

System: OVCAR-3 ovarian
Assay: DTP human tumour cell line panel, 48 h

| SMILES | TGI [µM] |
| --- | --- |
| O=C1C(Cl)N(c2ccccc2)C1c1c[nH]c2ccccc12 (centres undefined) | > 100 |
| COc1cc2c(NCCCCCCO[N+](=O)[O-])ncnc2c(OC)c1OC | > 78 |
| O=C(O)c1cc(S(=O)(=O)N=NC=C2c3ccccc3N(O)c3ccccc32)ccc1O | > 100 |
| CC(=O)OCC1OC(n2c(=S)[nH]c(-c3ccccc3)c(C#N)c2=O)C(OC(C)=O)C(OC(C)=O)C1OC(C)=O (centres undefined) | > 100 |
| CCOC(=O)c1c(SCCN2CCCC2)n(-c2ccccc2)c(=S)n(-c2ccccc2)c1=O | 3.35 |
| COC(=O)CCCC(=O)C(=Nc1c(Cl)cccc1Cl)NNc1ccc(Cl)cc1 | > 100 |
| O=[N+]([O-])C(=C(Sc1ccccc1)Sc1ccccc1)C(Cl)=C(Cl)Cl | 1.31 |

System: A498 renal
Assay: DTP human tumour cell line panel, 48 h

| SMILES | TGI [µM] |
| --- | --- |
| COc1cc2c(NCCCCCCO[N+](=O)[O-])ncnc2c(OC)c1OC | 52 |
| O=C(O)c1cc(S(=O)(=O)N=NC=C2c3ccccc3N(O)c3ccccc32)ccc1O | 41 |
| CC(=O)OCC1OC(n2c(=S)[nH]c(-c3ccccc3)c(C#N)c2=O)C(OC(C)=O)C(OC(C)=O)C1OC(C)=O (centres undefined) | > 100 |
| CCOC(=O)c1c(SCCN2CCCC2)n(-c2ccccc2)c(=S)n(-c2ccccc2)c1=O | 22.5 |
| COC(=O)CCCC(=O)C(=Nc1c(Cl)cccc1Cl)NNc1ccc(Cl)cc1 | 88.6 |
| O=[N+]([O-])C(=C(Sc1ccccc1)Sc1ccccc1)C(Cl)=C(Cl)Cl | 6.94 |

System: 786-0 renal
Assay: DTP human tumour cell line panel, 48 h

| SMILES | TGI [µM] |
| --- | --- |
| COc1cc2c(NCCCCCCO[N+](=O)[O-])ncnc2c(OC)c1OC | 69.2 |
| O=C(O)c1cc(S(=O)(=O)N=NC=C2c3ccccc3N(O)c3ccccc32)ccc1O | 27.7 |
| CC(=O)OCC1OC(n2c(=S)[nH]c(-c3ccccc3)c(C#N)c2=O)C(OC(C)=O)C(OC(C)=O)C1OC(C)=O (centres undefined) | > 100 |
| CCOC(=O)c1c(SCCN2CCCC2)n(-c2ccccc2)c(=S)n(-c2ccccc2)c1=O | 2.89 |
| COC(=O)CCCC(=O)C(=Nc1c(Cl)cccc1Cl)NNc1ccc(Cl)cc1 | > 100 |
| O=[N+]([O-])C(=C(Sc1ccccc1)Sc1ccccc1)C(Cl)=C(Cl)Cl | 0.188 |

System: OVCAR-4 ovarian
Assay: DTP human tumour cell line panel, 48 h

| SMILES | TGI [µM] |
| --- | --- |
| O=C1C(Cl)N(c2ccccc2)C1c1c[nH]c2ccccc12 (centres undefined) | > 100 |
| COc1cc2c(NCCCCCCO[N+](=O)[O-])ncnc2c(OC)c1OC | > 100 |
| O=C(O)c1cc(S(=O)(=O)N=NC=C2c3ccccc3N(O)c3ccccc32)ccc1O | 19.8 |
| CC(=O)OCC1OC(n2c(=S)[nH]c(-c3ccccc3)c(C#N)c2=O)C(OC(C)=O)C(OC(C)=O)C1OC(C)=O (centres undefined) | > 100 |
| CCOC(=O)c1c(SCCN2CCCC2)n(-c2ccccc2)c(=S)n(-c2ccccc2)c1=O | 27 |
| COC(=O)CCCC(=O)C(=Nc1c(Cl)cccc1Cl)NNc1ccc(Cl)cc1 | > 100 |
| O=[N+]([O-])C(=C(Sc1ccccc1)Sc1ccccc1)C(Cl)=C(Cl)Cl | 1.46 |
